Assay results reported in PubChem BioAssay (NCI).
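Where inhibition never reached the appropriate level, the endpoint shown equals the highest concentration tested. Otherwise, values were interpolated linearly from a five-concentration, 48-hour dose response in 96-well plates. Abbreviation: GI50, concentration required for 50% inhibition of growth. TGI is the concentration that stops growth completely.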

Experiments:
Assay in all cases: NCI tumour cell line growth inhibition, 48 h
[1] = tested on: A498 renal
[2] = tested on: COLO 205 colon
[3] = tested on: MALME-3M melanoma
[4] = tested on: MOLT-4 leukemia
[5] = tested on: NCI-H226 lung
[6] = tested on: SK-MEL-2 melanoma
[7] = tested on: SK-MEL-5 melanoma
[8] = tested on: SN12C renal
[9] = tested on: DU-145 prostate
[10] = tested on: PC-3 prostate

Compound | TGI [1] | TGI [2] | TGI [3] | TGI [4] | TGI [5] | TGI [6] | TGI [7] | TGI [8] | GI50 [2] | GI50 [9] | TGI [9] | GI50 [4] | GI50 [5] | GI50 [10] | TGI [10] | GI50 [6] | GI50 [7] | GI50 [8] | GI50 [3] | GI50 [1]
NC(=O)OCC(COc1ccc(Cl)cc1)OC(=O)c1cc([N+](=O)[O-])cc([N+](=O)[O-])c1 (stereo unspecified) | > 100 µM | > 100 µM | > 100 µM | > 100 µM | > 100 µM | > 100 µM | > 100 µM | > 100 µM | – | – | – | – | – | – | – | – | – | – | – | –
Cc1nn(-c2ccccc2)c(C)c1/C=N/N1CCN(Cc2ccccc2)CC1 | – | > 100 µM | – | 55.2 µM | 96.2 µM | > 100 µM | 36.7 µM | > 100 µM | 41 µM | 96.4 µM | > 100 µM | 26.8 µM | 27.8 µM | 25.2 µM | 96.5 µM | 60.7 µM | 18.7 µM | > 100 µM | – | –
CN1CCc2cc(O)c3cc2C1Cc1ccc(cc1)Oc1cc(ccc1O)CC1c2c(cc4c(c2O3)OCO4)CCN1C (stereo unspecified) | – | 28.8 µM | – | 85.4 µM | 47.7 µM | 34.2 µM | 33.1 µM | > 100 µM | – | – | – | – | – | – | – | – | – | – | – | –
CC(=O)OCc1c(C)c2ccccc2n1C(C)=O | > 100 µM | > 100 µM | 73.7 µM | 86.7 µM | > 100 µM | 43.3 µM | > 100 µM | > 100 µM | – | – | – | – | – | – | – | – | – | – | – | –
O=C(NCCCCCCNC(=O)NC1OCC(O)C(O)C1O)NC1OCC(O)C(O)C1O (stereo unspecified) | – | > 100 µM | > 100 µM | > 100 µM | > 100 µM | > 100 µM | > 100 µM | > 100 µM | – | – | – | – | – | – | – | – | – | – | – | –
CSC1CC2C(CC1(C)SC)C2(C)C (stereo unspecified) | > 100 µM | > 100 µM | > 100 µM | > 100 µM | 73.1 µM | 56.8 µM | 78.9 µM | – | – | – | – | – | – | – | – | – | – | – | – | –
CCCCC/C=C\C/C=C/CCCCCCCCNC(=O)Nc1ccc([N+](=O)[O-])cc1 | – | 28.9 µM | 84.4 µM | 41.4 µM | > 100 µM | > 100 µM | 32.4 µM | > 100 µM | 15 µM | 40.1 µM | > 100 µM | 5.68 µM | 14.8 µM | 4.45 µM | > 100 µM | 32.3 µM | 14.8 µM | 8.12 µM | 25.2 µM | –
N=C(N)c1ccc(-c2ccc(-c3ccc(Cl)c(Cl)c3)o2)nc1 | 28.5 µM | – | 3.42 µM | – | 49.9 µM | – | 3.15 µM | 3.52 µM | – | 1.89 µM | 3.62 µM | – | 15.4 µM | 1.72 µM | 3.29 µM | – | 1.74 µM | 1.74 µM | 1.78 µM | 9.98 µM
Nc1nc(Cl)nc2c1ncn2C1CCC(COP(=O)(O)OP(=O)(O)OP(=O)(O)O)O1 (stereo unspecified) | > 100 µM | 41.7 µM | > 100 µM | > 100 µM | > 100 µM | – | – | > 100 µM | – | – | 69.8 µM | – | – | – | 64.3 µM | – | – | – | – | –
COc1cc2c(cc1OC)C1(c3ccccc3)ON=C(c3ccccc3)N1CS2 (stereo unspecified) | > 100 µM | > 100 µM | > 100 µM | > 100 µM | > 100 µM | > 100 µM | > 100 µM | > 100 µM | – | – | – | – | – | – | – | – | – | – | – | –
CC1=C2[C@@H](c3ccccc3)C3C=CC2(c2ccccc23)N(C(=O)Nc2cccc3ccccc23)C1=O (stereo partly specified) | > 100 µM | > 100 µM | > 100 µM | > 100 µM | – | – | > 100 µM | > 100 µM | – | – | – | – | – | – | – | – | – | – | – | –
